Reference: patent US7262189B2, “Benzothiazine and benzothiadiazine derivatives, method for preparing same and pharmaceutical compositions containing same” (Les Laboratoires Server, priority 2001, dated 2007)
Where two headings read alike, the source gives them in different places.

Test system: AMPA receptors
Test: Excitatory fluxes induced by AMPA in Xenopus oocytes (2-electrode voltage-clamp)
Type: cell-based
Settings: Xenopus oocytes injected with rat cerebral cortex poly-(A+) mRNA, AMPA 10 μM
Experimental: Study of the Excitatory Fluxes Induced by AMPA in Xenopus oocytes
mRNAs are prepared from cerebral cortex of male Wistar rat by the guanidinium thiocyanate/phenol/chloroform method. The poly-(A^+) mRNAs are isolated by chromatography on oligo-dT cellulose and injected in an amount of 50 ng per oocyte. The oocytes are left to incubate for 2 to 3 days at 18° C. to allow expression of the receptors and are then stored at from 8 to 10° C.
Electrophysiological recording is carried out in a Plexiglass® chamber at from 20 to 24° C. in OR2 medium (J. Exp. Zool., 1973, 184, 321-334) by the 2-electrode “voltage-clamp” method, a 3rd electrode being placed in the bath to serve as reference.
All the compounds are administered via the incubation medium and the electric current is measured at the end of the period of administration. AMPA is used at a concentration of 10 μM. For each compound studied, the concentration that doubles (EC2×) or quintuples (EC5×) the intensity of the current induced by AMPA alone (5 to 50 nA) is determined.

O=S1(=O)NC2CCCN2c2ccc(OC(=S)Oc3ccccc3)cc21 (centres unmarked) [Example 2, O-(5,5-Dioxido-2,3,3a,4-tetrahydro-1H-pyrrolo[2,1-c][1,2,4]-benzothiadiazin-7-yl)O-phenyl thiocarbonate]
Concentration doubling (EC2×) or quintupling (EC5×) the AMPA current (read-out: EC2× (concentration that doubles the intensity of the current induced by AMPA alone)): 1.8 µM | Concentration doubling (EC2×) or quintupling (EC5×) the AMPA current (read-out: EC5× (concentration that quintuples the intensity of the current induced by AMPA alone)): 9.6 µM
